According to PMC5770468, “Cardiac glycoside/aglycones inhibit HIV-1 gene expression by a mechanism requiring MEK1/2-ERK1/2 signaling” (Scientific Reports, 2018):

Assays:
[1] = test system: HeLa rtTA-HIV-ΔMls cells; type: cell-based, human; conditions: XTT
Experimental: Drug/compounds were tested for effects on HIV-1 gene expression using inducible Tet-ON HIV-1 cell lines [HeLa rtTA-HIV-ΔMls or rtTA-HIV(Gag-GFP)] containing a HIV-1 (LAI) provirus activatable by Dox or tetracycline transactivator (tTA)[69]. The rtTA-HIV-ΔMls provirus was modified and used as previously reported[9]–[11],[70]. The rtTA-HIV(Gag-GFP) provirus was generated by deletion of the PR and RT coding regions within pol and insertion of GFP to the 3′ of gag, creating GFP fused to the C-terminal of Gag. After 4 h of drug/compound treatment, HIV-1 gene expression was activated with Dox (2 μg/mL) or tTA (described below). Equal concentrations of DMSO were present in each experiment. After ~20 h, cells and media were harvested to monitor the effects of drug/compound treatments as described below. HIV-1 gene expression was quantified via p24^CA ELISA or monitoring Gag-GFP fluorescence in cells as described below. In parallel, cell viability of treatments were assessed by XTT assay (Sigma-Aldrich, #TOX2). For confirmatory tests, the CD4^+ HIV-1 T-cell line, 24ST1NLESG, from J. Dougherty, was treated with drug/compounds and HIV-1 gene expression activated by 1.8 µM of phorbol 12-myristate 13-acetate (PMA) as previously described[10],[11],[71].
Supplementary Figure S2. CSs inhibit HIV-1 gene expression in a dose-dependent manner. […]

[2] = test system: Tra2β; assay: Immunoblot of Tra2β in HeLa rtTA-HIV-ΔMls cells; type: cell-based, human; conditions: 3 d with ~IC50s of CSs
Description: Figure 4 CSs suppress HIV-1 gene expression by altering viral RNA processing. […] (a,b) CSs induce oversplicing of HIV-1 RNAs (n ≥ 3, mean, s.e.m.). (a) Diagram of the primer positions (arrow heads) used for qRT-PCR. (b) Graph of the relative amount of US (black), SS (white), and MS (gray) HIV-1 RNAs in cells treated with various CSs. (c) Nuclear export of HIV-1 US RNAs in cells is altered by CSs (representative n ≥ 4). HIV-1 US RNAs were localized by FISH after treating HeLa rtTA-HIV(Gag-GFP) cells as described above but with ~IC90s of CSs. Nuclei were stained by DAPI and images captured at 630 × magnification. […] SRp20, Tra2β, and tubulin were analyzed by immunoblot of HeLa rtTA-HIV-ΔMls cells treated as described above except cells of this representative blot were treated 3 d with ~IC50s of CSs. […]
To monitor HIV-1 gene expression or replication, Gag release into cell culture supernatants were assayed by ELISA using a p24^CA antigen capture assay kit (AIDS & Cancer Virus Program, NCI-Frederick, Frederick, MD USA). […] For analysis of HIV-1 and SR protein expression (and phosphorylation states with calf intestinal alkaline phosphatase treatments), cells were lysed and analyzed by western blot as previously outlined. […] Activation of MAPKs was determined by western blot quantitation and calculation of phospho/total protein levels. […]

SMILES	toxicity ([1]; at 1000 nM)	abundance of a modified species of Tra2β [2]	CC20 (cytotoxic effects ≥20%) [1] [nM]
C[C@]12CC[C@H](O)C[C@H]1CC[C@@H]1[C@@H]2CC[C@]2(C)[C@@H](C3=CC(=O)OC3)CC[C@]12O [Digitoxigenin]	no toxicity	no effect	–
C[C@]12CC[C@H](O)C[C@H]1CC[C@@H]1[C@@H]2C[C@@H](O)[C@]2(C)[C@@H](C3=CC(=O)OC3)CC[C@]12O [Digoxigenin]	–	–	600
CC(=O)O[C@H]1C[C@H](O[C@H]2[C@@H](O)C[C@H](O[C@H]3[C@@H](O)C[C@H](O[C@H]4CC[C@@]5(C)[C@H](CC[C@@H]6[C@@H]5C[C@@H](O)[C@]5(C)[C@@H](C7=CC(=O)OC7)CC[C@]65O)C4)O[C@@H]3C)O[C@@H]2C)O[C@H](C)[C@H]1O[C@@H]1O[C@H](CO)[C@@H](O)[C@H](O)[C@H]1O [Lanatoside C]	–	no effect	–
